According to patent US6673802B2, “Compounds specific to adenosine A3 receptor and uses thereof” (OSI Pharmaceuticals, Inc., priority 2000, dated 2004):

Assays:
A1 adenosine receptor = A1 adenosine receptor (Homo sapiens, UniProt P30542); conditions: cited from earlier work
[1] = molecular target: T1, human A2a receptor subtype (Homo sapiens, UniProt P29274); test: Adenosine 2a receptor subtype competition radioligand binding ([3H]CGS-21680, HEK293 membranes); conditions: Table 13; probably % activity @ 10 μM (footnote 8)
T1 construct: purchased Receptor Biology (Beltsville, Md.) RB-HA2a
T1 sequence (P29274 whole entry): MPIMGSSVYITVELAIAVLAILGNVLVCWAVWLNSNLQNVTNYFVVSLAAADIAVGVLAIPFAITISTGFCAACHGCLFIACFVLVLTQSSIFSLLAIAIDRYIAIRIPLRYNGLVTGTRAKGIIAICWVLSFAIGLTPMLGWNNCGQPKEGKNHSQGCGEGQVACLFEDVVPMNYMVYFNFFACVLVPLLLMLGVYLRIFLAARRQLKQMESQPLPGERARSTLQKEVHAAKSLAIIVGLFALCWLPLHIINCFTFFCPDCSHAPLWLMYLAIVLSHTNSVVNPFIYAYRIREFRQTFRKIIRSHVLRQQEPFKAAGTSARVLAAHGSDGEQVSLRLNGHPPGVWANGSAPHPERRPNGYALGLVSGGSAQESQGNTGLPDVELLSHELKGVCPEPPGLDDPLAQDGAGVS

Sequence of A1 adenosine receptor (P30542 whole entry): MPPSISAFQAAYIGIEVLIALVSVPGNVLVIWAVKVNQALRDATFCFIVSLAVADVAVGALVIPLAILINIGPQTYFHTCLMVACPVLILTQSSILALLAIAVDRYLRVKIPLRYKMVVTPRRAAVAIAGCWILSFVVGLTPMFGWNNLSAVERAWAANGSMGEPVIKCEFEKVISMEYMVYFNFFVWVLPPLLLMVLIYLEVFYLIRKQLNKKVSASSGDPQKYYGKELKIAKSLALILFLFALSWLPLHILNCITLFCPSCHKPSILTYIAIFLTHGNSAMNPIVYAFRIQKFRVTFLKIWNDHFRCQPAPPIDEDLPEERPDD

melting point	SMILES	further results
–	CC(Cc1ccccc1)Nc1ncnc2c1ncn2[C@@H]1O[C@H](CO)[C@@H](O)[C@H]1O (single isomer, unassigned; (-)) [PIA, (−)-N6-(2-phenylisopropyl)-adenosine]	reported affinity (A1 adenosine receptor): approximately 50 nM
234 to 235 °C	c1ccc(-c2nc(NCCc3cnc[nH]3)c3cc[nH]c3n2)cc1 [Compound 1720, [2-(3H-Imidazol-4-yl)-ethyl]-(2-phenyl-7H-pyrrolo[2,3-d]pyrimidin-4-yl)-amine]	–
196 to 197 °C	CC(=O)NCCNc1nc(-c2ccccc2)nc2[nH]c(COc3ccccc3)cc12 [Example 17, 4-(2-acetylaminoethyl)amino-6-phenoxymethyl-2-phenyl-7H-pyrrolo[2,3d]pyrimidine]	–
–	CNC(=O)NCCCNc1nc(-c2ccccc2)nc2[nH]c(C)c(C)c12 [Compound 1310]	A2a, value printed as % [1]: 76%
